In ChEMBL document CHEMBL4828748, “Design, synthesis, and pharmacological evaluation of sinomenine derivatives on rings A and C: Novel compounds screening for aplastic anemia targeting on cytotoxic T lymphocyte” (Eur J Med Chem, 2021):
Activity calls are given as the source filed them. The rule behind the calls is not given here.

Key:
Mus musculus [1] = test: Anti-aplastic anaemia in immune-mediated bone marrow failure BALB/c mouse model assessed as increase in hematocrit content at 2.5 to 10 mg/kg, po administered for 14 days and measured on day 14 by automated micro-analyzer; type: functional, organism-based; settings: dose 2.5-10 mg/kg, time 14.0 day
Mus musculus [2] = test: Anti-aplastic anaemia in immune-mediated bone marrow failure BALB/c mouse model assessed as prevention of food intake decrease at 2.5 to 10 mg/kg, po administered for 14 days; type: functional, organism-based; settings: dose 2.5-10 mg/kg, time 14.0 day
[3] = Cytotoxicity against C57BL/6 mouse primary CD8-positive T lymphocytes assessed as effect on cell viability at 1 to 5 uM incubated for 48 hrs by CCK8 assay; type: tissue-based; settings: dose 1-5 µM
Mus musculus [4] = test: Anti-aplastic anaemia in immune-mediated bone marrow failure BALB/c mouse model assessed as increase in thymus index at 2.5 to 10 mg/kg, po administered for 14 days; type: functional, organism-based; settings: dose 2.5-10 mg/kg, time 14.0 day
[5] = Acute toxicity in po dosed Kunming mouse; type: organism-based; settings: in vivo
Mus musculus [6] = test: Anti-aplastic anaemia in immune-mediated bone marrow failure BALB/c mouse model assessed as increase in eosinophils count at 2.5 to 10 mg/kg, po administered for 14 days and measured on day 14 by automated micro-analyzer; type: functional, organism-based; settings: dose 2.5-10 mg/kg, time 14.0 day
Peritoneal macrophage = test: Inhibition of LPS-induced NO production in C57BL/6J mouse peritoneal macrophages at 10 uM measured after 24 hrs in presence of LPS by Griess reagent based assay relative to control; type: functional
[7] = Inhibition of hematopoietic negative regulators release in CD3/CD28 antibody-stimulated C57BL/6 mouse primary CD8-positive T lymphocytes assessed as suppression of IFN-gamma release measured after 48 hrs by ELISA; type: functional, tissue-based; settings: C57BL/6, CD8-positive T cell
[8] = Inhibition of CD3/CD28 antibody-stimulated C57BL/6 mouse primary CD8-positive T lymphocytes activation assessed as proportion of CD69-positive cells at 3 uM incubated for 48 hrs by flow cytometry (reference value: 93.42%); type: functional, CD8-positive T cell; set-up: scale not given: the % may be the effect or the level left
Mus musculus [9] = test: Anti-aplastic anaemia in immune-mediated bone marrow failure BALB/c mouse model assessed as increase in platelet count at 2.5 to 10 mg/kg, po administered for 14 days and measured on day 14 by automated micro-analyzer; type: functional, organism-based; settings: dose 2.5-10 mg/kg, time 14.0 day
CD8-positive T cell [10] = test: Inhibition of aerobic glycolysis in CD3/CD28 antibody-stimulated C57BL/6 mouse primary CD8-positive T lymphocytes assessed as reduction in lactate production at 1 to 5 uM incubated for 48 hrs; type: functional, tissue-based; settings: dose 1-5 µM
Mus musculus [11] = test: Anti-aplastic anaemia in immune-mediated bone marrow failure BALB/c mouse model assessed as increase in nucleated cell counts in femur at 2.5 to 10 mg/kg, po administered for 14 days and measured on day 14 by Hematoxylin-Eosin staining based analysis; type: functional, organism-based; settings: dose 2.5-10 mg/kg, time 14.0 day
Mus musculus [12] = test: Anti-aplastic anaemia in immune-mediated bone marrow failure BALB/c mouse model assessed as increase in RBC count at 2.5 to 10 mg/kg, po administered for 14 days and measured on day 14 by automated micro-analyzer; type: functional, organism-based; settings: dose 2.5-10 mg/kg, time 14.0 day
hERG (KCNH2) = hERG (KCNH2) (Homo sapiens, UniProt Q12809); test: Inhibition of human ERG expressed in CHO cells measured after 24 hrs by patch clamp assay relative to control; type: cell-based; settings: CHO cells expressing human ERG
Chain of hERG (KCNH2) (Q12809 whole entry): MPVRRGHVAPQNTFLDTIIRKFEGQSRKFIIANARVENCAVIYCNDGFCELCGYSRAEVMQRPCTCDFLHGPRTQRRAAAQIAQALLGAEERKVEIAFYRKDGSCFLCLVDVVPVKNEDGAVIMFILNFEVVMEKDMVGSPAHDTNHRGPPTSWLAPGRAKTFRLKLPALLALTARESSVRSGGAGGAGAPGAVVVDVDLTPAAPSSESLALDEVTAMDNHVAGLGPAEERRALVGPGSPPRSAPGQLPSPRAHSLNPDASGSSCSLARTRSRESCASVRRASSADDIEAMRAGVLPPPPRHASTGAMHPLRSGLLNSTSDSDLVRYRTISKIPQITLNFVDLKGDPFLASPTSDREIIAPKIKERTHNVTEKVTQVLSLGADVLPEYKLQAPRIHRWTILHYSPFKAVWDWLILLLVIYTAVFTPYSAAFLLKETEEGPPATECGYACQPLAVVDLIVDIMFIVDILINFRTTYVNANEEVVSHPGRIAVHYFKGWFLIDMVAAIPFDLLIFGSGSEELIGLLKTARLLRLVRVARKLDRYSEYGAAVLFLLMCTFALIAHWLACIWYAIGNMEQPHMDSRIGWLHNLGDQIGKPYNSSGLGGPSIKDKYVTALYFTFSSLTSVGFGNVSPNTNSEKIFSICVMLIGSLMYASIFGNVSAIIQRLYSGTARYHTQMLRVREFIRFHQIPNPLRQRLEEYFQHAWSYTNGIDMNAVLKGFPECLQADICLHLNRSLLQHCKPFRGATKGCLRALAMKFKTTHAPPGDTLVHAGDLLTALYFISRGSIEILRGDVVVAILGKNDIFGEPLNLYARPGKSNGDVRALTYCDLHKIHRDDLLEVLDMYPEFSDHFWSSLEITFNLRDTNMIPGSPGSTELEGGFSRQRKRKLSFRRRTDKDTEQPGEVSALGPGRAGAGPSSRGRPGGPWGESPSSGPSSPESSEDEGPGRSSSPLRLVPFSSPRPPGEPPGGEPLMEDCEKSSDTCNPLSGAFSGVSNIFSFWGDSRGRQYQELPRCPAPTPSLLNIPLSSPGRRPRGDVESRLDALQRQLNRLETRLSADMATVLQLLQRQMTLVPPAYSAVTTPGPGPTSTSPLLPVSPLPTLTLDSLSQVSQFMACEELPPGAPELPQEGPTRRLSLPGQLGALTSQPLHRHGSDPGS

[13] = Inhibition of mouse CTLL-2 cells activity at 10 uM incubated for 24 hrs; type: functional
[14] = target: Voltage-gated inwardly rectifying potassium channel KCNH2 (Homo sapiens, UniProt Q12809); test: Inhibition of human ERG expressed in CHO cells measured after 24 hrs by patch clamp assay; type: cell-based
Chain of Voltage-gated inwardly rectifying potassium channel KCNH2 (Q12809 whole entry): as above

[15] = Cytotoxicity against C57BL/6J mouse peritoneal macrophages assessed as reduction of cell viability at 10 uM incubated for 24 hrs in presence of LPS by MTT assay; type: cell-based, Peritoneal macrophage
Mus musculus [16] = test: Anti-aplastic anaemia in immune-mediated bone marrow failure BALB/c mouse model assessed as reduction in histopathological changes in femur at 2.5 to 10 mg/kg, po administered for 14 days and measured on day 14 by Hematoxylin-Eosin staining based analysis; type: functional, organism-based; settings: dose 2.5-10 mg/kg, time 14.0 day
[17] = Inhibition of IFN-gamma release in mouse CTLL-2 cells measured after 24 hrs by ELISA; type: functional, cell-based; settings: CTLL-2, 24 h
Mus musculus [18] = test: Anti-aplastic anaemia in immune-mediated bone marrow failure BALB/c mouse model assessed as increase in hemoglobin content at 2.5 to 10 mg/kg, po administered for 14 days and measured on day 14 by automated micro-analyzer; type: functional, organism-based; settings: dose 2.5-10 mg/kg, time 14.0 day
Mus musculus [19] = test: Anti-aplastic anaemia in immune-mediated bone marrow failure BALB/c mouse model assessed as slowing down the weight loss at 2.5 to 10 mg/kg, po administered for 14 days; type: functional, organism-based; settings: dose 2.5-10 mg/kg, time 14.0 day
CD8-positive T cell [20] = test: Inhibition of CD3/CD28 antibody-stimulated C57BL/6 mouse primary CD8-positive T lymphocytes proliferation assessed as reduction in cell viability incubated for 48 hrs by CCK8 assay; type: functional, tissue-based; settings: dose 1-10 µM
Mus musculus [21] = test: Anti-aplastic anaemia in immune-mediated bone marrow failure BALB/c mouse model assessed as increase in neutrophils count at 2.5 to 10 mg/kg, po administered for 14 days and measured on day 14 by automated micro-analyzer; type: functional, organism-based; settings: dose 2.5-10 mg/kg, time 14.0 day
Mus musculus [22] = test: Anti-aplastic anaemia in immune-mediated bone marrow failure BALB/c mouse model assessed as increase in WBC count at 2.5 to 10 mg/kg, po administered for 14 days and measured on day 14 by automated micro-analyzer; type: functional, organism-based; settings: dose 2.5-10 mg/kg, time 14.0 day
CD8-positive T cell [23] = test: Inhibition of CD3/CD28 antibody-stimulated C57BL/6 mouse primary CD8-positive T lymphocytes proliferation at 1 to 5 uM incubated for 48 hrs by CFSE staining based flow cytometry; type: functional, tissue-based; settings: dose 1-5 µM
[24] = Inhibition of CD3/CD28 antibody-stimulated C57BL/6 mouse primary CD8-positive T lymphocytes activation assessed as proportion of CD69-positive cells at 5 uM incubated for 48 hrs by flow cytometry (reference value: 93.42%); type: functional, CD8-positive T cell; set-up: scale not given: the % may be the effect or the level left
Mus musculus [25] = test: Anti-aplastic anaemia in immune-mediated bone marrow failure BALB/c mouse model assessed as increase in immature reticulocytes administered orally for 14 days and measured on day 14 by automated micro-analyzer; type: functional, organism-based; settings: dose 2.5-10 mg/kg, time 14.0 day
Mus musculus [26] = test: Anti-aplastic anaemia in immune-mediated bone marrow failure BALB/c mouse model assessed as increase in spleen index at 2.5 to 10 mg/kg, po administered for 14 days; type: functional, organism-based; settings: dose 2.5-10 mg/kg, time 14.0 day
CD8-positive T cell [27] = test: Inhibition of aerobic glycolysis in CD3/CD28 antibody-stimulated C57BL/6 mouse primary CD8-positive T lymphocytes assessed as reduction in glucose consumption at 1 to 5 uM incubated for 48 hrs; type: functional, tissue-based; settings: dose 1-5 µM
[28] = Inhibition of hematopoietic negative regulators release in CD3/CD28 antibody-stimulated C57BL/6 mouse primary CD8-positive T lymphocytes assessed as suppression of TNF-alpha release measured after 48 hrs by ELISA; type: functional, tissue-based; settings: C57BL/6, CD8-positive T cell
Mus musculus [29] = test: Anti-aplastic anaemia in immune-mediated bone marrow failure BALB/c mouse model assessed as increase in ratio of nucleated cell to erythroid cell counts in femur at 2.5 to 10 mg/kg, po administered for 14 days and measured on day 14 by Hematoxylin-Eosin staining based analysis; type: functional, organism-based; settings: dose 2.5-10 mg/kg, time 14.0 day
[30] = Inhibition of CD3/CD28 antibody-stimulated C57BL/6 mouse primary CD8-positive T lymphocytes activation assessed as proportion of CD69-positive cells at 1 uM incubated for 48 hrs by flow cytometry (reference value: 93.42%); type: functional, CD8-positive T cell; set-up: scale not given: the % may be the effect or the level left
[31] = Acute toxicity in Kunming mouse assessed as animal survival without abnormal state at 5 to 10 g/kg, po administered as single dose; type: organism-based; settings: in vivo, dose 5-10 g/Kg
[32] = Inhibition of mouse CTLL-2 cells activity incubated for 24 hrs; type: functional, cell-based
Mus musculus [33] = test: Anti-aplastic anaemia in immune-mediated bone marrow failure BALB/c mouse model assessed as increase in plateletcrit at 2.5 to 10 mg/kg, po administered for 14 days and measured on day 14 by automated micro-analyzer; type: functional, organism-based; settings: dose 2.5-10 mg/kg, time 14.0 day

## COC1=C[C@@H]2[C@@H]3Cc4c(COC(=O)/C=C/c5ccccc5)cc(OC)c(OC(=O)/C=C/c5ccccc5)c4[C@]2(CCN3C)CC1=O
Mus musculus [1]
  Activity: Active
Mus musculus [2]
  Activity: Active
[3]
  Activity: Non-Toxic
Mus musculus [4]
  Activity: Active
[5]
  LD50: > 10000 mg/kg
Mus musculus [6]
  Activity: Active
Peritoneal macrophage
  inhibition at 10 µM: 97.1%
[7]
  IC50: 3.2 µM
[8]
  Activity: 80.87%
Mus musculus [9]
  Activity: Active
CD8-positive T cell [10]
  inhibition: Active
Mus musculus [11]
  Activity: Active
Mus musculus [12]
  Activity: Active
hERG (KCNH2)
  inhibition at 24 h: 26.2%
[13]
  inhibition at 10 µM: 98.1%
[14]
  IC50: > 30 µM
[15]
  inhibition at 24 h, 10 µM: 6.4%
Mus musculus [16]
  Activity: Active
[17]
  IC50: 4.5 µM
Mus musculus [18]
  Activity: Active
Mus musculus [19]
  Activity: Active
CD8-positive T cell [20]
  inhibition: Dose-Dependent Effect
Mus musculus [21]
  Activity: Active
Mus musculus [22]
  Activity: Active
CD8-positive T cell [23]
  inhibition: Active
[24]
  Activity: 76.97%
Mus musculus [25]
  Activity: Active
Mus musculus [26]
  Activity: Active
CD8-positive T cell [27]
  inhibition: Active
[28]
  IC50: 4.4 µM
Mus musculus [29]
  Activity: Active
[30]
  Activity: 89.37%
[31]
  Survival: 14 days
[32]
  IC50: 2.3 µM
Mus musculus [33]
  Activity: Active
